Test results: patent EP1210336B1, “SUBSTITUTED BENZIMIDAZOLES AS NON-NUCLEOSIDE INHIBITORS OF REVERSE TRANSCRIPTASE” (THE UNITED STATES OF AMERICA, as represented by the …, priority 1999, dated 2001)

Experiments:
[1] = tested on: HIV-1 isolate 4xAZT/L100I; test: Cytopathic cell killing assay, cross-resistance profile, infected MT-4 cells; type: cell-based
Procedure: The various HIV isolates tested in the Figures are those corresponding to wild-type virus (NL4-3) and the other strains listed by their RT mutations. The three 4xAZT isolates included in the Figures represent AZT drug-resistant variants. […]
Briefly, in this method cells (e.g., the CEM-SS cell line, available from the NIAID AIDS Research and Reference Program [ARRRP]) were seeded at a density of 5 x 10^3 cells/well, into the wells of a 96-well microtiter plate. The cells were then infected with HIV virus (either mutant or WT), at a multiplicity of infection (MOI) previously determined to provide complete cell killing by 6 days of culture post-infection (e.g., MOI of 0.01-0.05). Each of the HIV isolates was pre-titered to induce equivalent levels of infection based on cell killing or virus production, prior to their use in these assays. A range of test compound concentrations was added to the wells in triplicate (e.g., serial half-log dilutions) to evaluate inhibition of HIV infection. Controls for each assay included drug controls (drug colorimetric control wells), drug cytotoxicity control wells (cells with drug), virus control wells (cells with virus), and cell viability controls (cells only). Positive control drugs (e.g., AZT and ddC) were also run in parallel.
After six days of incubation at 37°C, cell viability was determined spectrophotometrically at 450 nm for each well, using the metabolic reduction of XTT to a soluble colored formazan. (See, Gartner and Popovic, "Virus Isolation and Production, in Aldovini and Walker (eds.), Techniques in HIV Research, Stockton Press, NY, pp. […] [1991]; and Nara and Fischinger, "Quantitative Infectivity Assay for HIV-1 and HIV-2," Nature 332:469-470 [1988]).
The in vitro therapeutic index (TI50) was defined as the fold-difference between the EC50 and IC50.

[2] = tested on: HIV-1 variant L100I; test: as above; type: cell-based; conditions: isolate L1001
Outline: (§1)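 Infected cultures (MOI chosen for complete cell death at 6 days, isolates matched by pre-titering) received serially diluted compound. Surviving cells were detected colorimetrically via XTT at 450 nm.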

[3] = tested on: HIV-1 variant K101E; test: as above; type: cell-based
Outline: as §1

[4] = tested on: HIV-1 isolate 4xAZT; test: as above; type: cell-based
Outline: as §1

[5] = tested on: HIV-1 variant K103N; test: as above; type: cell-based; conditions: isolate K103N
Outline: as §1

[6] = tested on: HIV-1 variant V179D; test: as above; type: cell-based; conditions: isolate V179D
Outline: as §1

[7] = tested on: HIV-1 variant V108I; test: as above; type: cell-based
Outline: as §1

[8] = tested on: HIV-1 variant Y188C; test: as above; type: cell-based; conditions: isolate Y188C
Outline: as §1

[9] = tested on: HIV-1 variant V106A; test: as above; type: cell-based; conditions: isolate V106A
Outline: as §1

[10] = tested on: HIV-1 variant L74V; test: as above; type: cell-based
Outline: as §1

[11] = tested on: HIV-1 isolate 4xAZT/Y181C; test: as above; type: cell-based
Outline: as §1

[12] = tested on: HIV-1 variant Y181C; test: as above; type: cell-based; conditions: isolate Y181C
Outline: as §1

[13] = tested on: HIV-1 variant A98G; test: as above; type: cell-based; conditions: isolate A98G
Outline: as §1

[14] = tested on: NL4-3 (WT); test: as above; type: cell-based, HIV-1
Outline: as §1

[15] = target: T1, HIV-1 WT RT (Human immunodeficiency virus type 1 group M subtype B, UniProt P03366); conditions: reported by Pauwels et al. (TIBO) and Buckheit et al. (thiazolobenzimidazole); read-out: IC50 for rC:dG; cited from earlier work
T1 construct: purified RT protein (0.015 mg/mL) was incubated in a 100 µL reaction mixture

[16] = Human immunodeficiency virus 1, MT4, Table 4
[17] = Human immunodeficiency virus 1, MT4, Table 9
[18] = Human immunodeficiency virus 1, MT4, Table 10 (values in µM)

SMILES: CC1Cn2c(=O)[nH]c3cccc(c32)CN1 (stereo not drawn) [TIBO, 4,5,6,7-tetrahydro-5-methylimidazo[4,5,1-jk][1,4]benzodiazepin-2(1H)-one, reference compound]
- EC50 ([1]; Human immunodeficiency virus 1, MT4, Table 4, isolate 4xAZT/L.1001): > 17.4 µM
- EC50 ([1]; Human immunodeficiency virus 1, MT4, Table 9, isolate 4XAZT /L1001): > 20 µM
- EC50 [2, 16]: 17.4 µM
- EC50 [2, 17]: > 10 µM
- EC50 [2, 18]: 17.4 µM
- EC50 ([3]; Human immunodeficiency virus 1, MT4, Table 4, isolate K101E): 17.4 µM
- EC50 ([3]; Human immunodeficiency virus 1, MT4, Table 9, isolate KIOIE): > 10 µM
- EC50 ([3]; Human immunodeficiency virus 1, MT4, Table 10 (values in µM), isolate K101E): 17.4 µM
- EC50 ([4]; Human immunodeficiency virus 1, MT4, Table 4, isolate 4xAZT): 0.3 µM
- EC50 ([4]; Human immunodeficiency virus 1, MT4, Table 9, isolate 4XAZT): 0.3 µM
- EC50 [5, 16]: 17.4 µM
- EC50 [5, 17]: > 10 µM
- EC50 [5, 18]: 17.4 µM
- EC50 [6, 16]: 6.2 µM
- EC50 [6, 17]: 6.2 µM
- EC50 ([7]; Human immunodeficiency virus 1, MT4, Table 4, isolate V108I): 2.4 µM
- EC50 ([7]; Human immunodeficiency virus 1, MT4, Table 9, isolate V1081): 2.4 µM
- EC50 ([7]; Human immunodeficiency virus 1, MT4, Table 10 (values in µM), isolate V108l): 2.4 µM
- EC50 [8, 16]: > 17.4 µM
- EC50 [8, 17]: > 20 µM
- EC50 [8, 18]: > 17.4 µM
- EC50 [9, 16]: 12.5 µM
- EC50 [9, 17]: > 10 µM
- EC50 ([10]; Human immunodeficiency virus 1, MT4, Table 4, isolate L74V): 0.2 µM
- EC50 ([10]; Human immunodeficiency virus 1, MT4, Table 9, isolate 1.74 V): 0.2 µM
- EC50 ([11]; Human immunodeficiency virus 1, MT4, Table 4, isolate 4xAZT/Y181C): 2 µM
- EC50 ([11]; Human immunodeficiency virus 1, MT4, Table 9, isolate 4XAZT /Y181C): 2 µM
- EC50 [12, 16]: 4.2 µM
- EC50 [12, 17]: 4.2 µM
- EC50 [12, 18]: 4.2 µM
- EC50 [13, 16]: 11 µM
- EC50 [13, 17]: 11 µM
- EC50 ([14]; Human immunodeficiency virus 1, NL43, MT4, Table 4, isolate NL4-3 (WT)): 0.3 µM
- EC50 ([14]; Human immunodeficiency virus 1, NL43, MT4, Table 9, isolate NL4.3): 0.3 µM
- EC50 ([14]; Human immunodeficiency virus 1, NL43, MT4, Table 10 (values in µM), isolate NL4-3 (WT)): 0.3 µM
- IC50 [15]: 0.06 µM
